This assay deals with nude mice, A549 intrarenal xenograft, tumor weight change. Kind of assay: NCI In Vivo Anticancer Drug Screen. Data for tumor model A549 Human Adenocarcinoma of Lung with characteristics of Type II Alveolar Epithelial cells (intrarenal inoculation) in NU/NU BALB/C (nude) mice. The note with it: endpoint: mean tumor weight change, schedule: Q04DX003 (ip), higher = larger tumour. The essentials:
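Mice bearing transplantable tumors were treated and survival or tumor size recorded. Values are given as treated-group measurement divided by vehicle-control measurement (T/C).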

The mark [1] stands for this setting: dose: 4.0 mg/kg/injection, vehicle: saline with Tween-80.
Where [2] appears, read: dose: 6.0 mg/kg/injection, vehicle: saline with Tween-80.
Where [3] appears, read: dose: 50.0 mg/kg/injection, vehicle: saline with Tween-80.
Where [4] appears, read: dose: 150.0 mg/kg/injection, vehicle: distilled water + Tween-80 + alcohol.
The mark [5] stands for this setting: dose: 300.0 mg/kg/injection, vehicle: distilled water + Tween-80 + alcohol.
Where [6] appears, read: dose: 75.0 mg/kg/injection, vehicle: water.
[7] abbreviates: dose: 25.0 mg/kg/injection, vehicle: saline.
[8] abbreviates: dose: 100.0 mg/kg/injection, vehicle: saline.
Where [9] appears, read: dose: 75.0 mg/kg/injection, vehicle: saline with Tween-80.
Where [10] appears, read: dose: 150.0 mg/kg/injection, vehicle: saline with Tween-80.
Where [11] appears, read: dose: 300.0 mg/kg/injection, vehicle: saline with Tween-80.

These results are taken from PubChem BioAssay AID278 (DTP/NCI, 2004).

SMILES strings stand for the structures. Where “and” joins values, the source holds several entries; their conditions need not be identical. Equal entries are not always repeated. Results filed as inconclusive are left out.

`CC[C@@]1(O)C(=O)OCc2c1cc1n(c2=O)Cc2cc3ccccc3nc2-1`: the T/C reads like this: (dose: 2.0 mg/kg/injection, vehicle: saline with Tween-80) 31 % of control; under setting [1], 29 % of control; under setting [2], -21 % of control; (dose: 8.0 mg/kg/injection, vehicle: saline with Tween-80) 17 % of control; (dose: 10.0 mg/kg/injection, vehicle: saline with Tween-80) -80 % of control; (dose: 16.0 mg/kg/injection, vehicle: saline with Tween-80) 12 % of control.
On to `COc1ccc(C(C)c2cc3c(cc2OC)OCO3)cc1` (stereo unspecified), for which the T/C by setting is: (dose: 12.5 mg/kg/injection, vehicle: saline with Tween-80) 17 % of control; (dose: 25.0 mg/kg/injection, vehicle: saline with Tween-80) 18 % of control and 43 % of control; under setting [3], 33 % of control.
Regarding `CCC1(O)C(=O)OCc2c1cc1n(c2=O)Cc2cc3cc4c(cc3nc2-1)OCO4` (stereo unspecified), the T/C under setting [1] was 6 % of control.
Regarding `COC12[C@@H]3N[C@@H]3CN1C1=C(C(=O)C(NCCSSCCNC3=C(C)C(=O)C4=C(C3=O)C(COC(N)=O)[C@]3(OC)C5N[C@@H]5CN43)=C(C)C1=O)[C@@H]2COC(N)=O` (stereo partly specified), the T/C was 29 % of control (dose: 1.57 mg/kg/injection, vehicle: DMSO); -77 % of control (dose: 3.13 mg/kg/injection, vehicle: DMSO); -33 % of control (dose: 6.25 mg/kg/injection, vehicle: DMSO); 2 % of control (dose: 12.5 mg/kg/injection, vehicle: DMSO).
As for `COc1ccc2oc(-c3ccc(Cl)cc3)c(N3CCN(C)CC3)c2c1`, the T/C reads like this: (dose: 75.0 mg/kg/injection, vehicle: saline) 21 % of control; (dose: 150.0 mg/kg/injection, vehicle: saline) 24 % of control.
Turning to `Cc1nc(C(Cl)(Cl)Cl)[nH]c(=O)c1SCCO`, the T/C is 31 % of control under setting [4]; 50 % of control (dose: 150.0 mg/kg/injection, vehicle: distilled water + alcohol); 181 % of control under setting [5]; 26 % of control (dose: 300.0 mg/kg/injection, vehicle: distilled water + alcohol); 2 % of control (dose: 600.0 mg/kg/injection, vehicle: distilled water + alcohol).
Take `Oc1cccc2ccccc12`: the T/C is, setting by setting: (dose: 37.5 mg/kg/injection, vehicle: water) 102 % of control; under setting [6], 54 % of control.
Take `CCCCCCCCCCCCN1C(C)=CS/C1=C\C=C\c1scc(C)[n+]1CCCCCCCCCCCC`: the T/C (dose: 0.75 mg/kg/injection, vehicle: saline with Tween-80) was 112 % of control; the T/C (dose: 1.5 mg/kg/injection, vehicle: saline with Tween-80) was 87 % of control; the T/C under setting [2] was 36 % of control.
As to `CN=NN(C)C(=O)NC`, the T/C was 37 % of control under setting [7]; 27 % of control (dose: 43.2 mg/kg/injection, vehicle: saline); 72 % of control (dose: 50.0 mg/kg/injection, vehicle: saline); 28 % of control (dose: 72.0 mg/kg/injection, vehicle: saline); 8 % of control under setting [8]; 8 % of control (dose: 120.0 mg/kg/injection, vehicle: saline). Further, the T/C (dose: 200.0 mg/kg/injection, vehicle: saline) was -34 % of control and -27 % of control.
Regarding `CC(/C=C/C=C/C=C/C=C/C=C/C(O)=C1/C(=O)C(CCC(=O)O)N(C)C1=O)=C\C(C)C(OC1CC(O)C(O)C(C)O1)C(C)C` (stereo unspecified), the T/C was 60 % of control (dose: 15.88 mg/kg/injection, vehicle: water); 61 % of control (dose: 31.75 mg/kg/injection, vehicle: water); 110 % of control (dose: 62.5 mg/kg/injection, vehicle: water); 37 % of control under setting [6].
`O=c1[nH]cc(F)c(=O)[nH]1`: the T/C is 207 % of control under setting [7] and 28 % of control under setting [8].
Consider `CN=C(N)N/N=C(\C)c1ccc2sc3ccc(/C(C)=N/NC(N)=NC)cc3c2c1`, for which the T/C is, setting by setting: under setting [9], 118 % of control; under setting [10], 95 % of control; under setting [11], 83 % of control.
With `c1ccc2c3c(c4c(c2c1)CN(C1CCCCC1)CO4)OCN(C1CCCCC1)C3`, the T/C (dose: 37.5 mg/kg/injection, vehicle: distilled water + Tween-80) is 65 % of control.
For the compound `CC1Oc2cc3c(-c4c(O)cc(O)c5c(O)c6c(cc45)OC(C)C(C)C6=O)c(O)cc(O)c3c(O)c2C(=O)C1C` (stereo unspecified), the T/C reads like this: (dose: 0.19 mg/kg/injection, vehicle: suspension in saline) 60 % of control; (dose: 0.38 mg/kg/injection, vehicle: suspension in saline) 51 % of control; (dose: 0.75 mg/kg/injection, vehicle: suspension in saline) 83 % of control; (dose: 3.0 mg/kg/injection, vehicle: suspension in saline) 63 % of control; (dose: 6.0 mg/kg/injection, vehicle: suspension in saline) 77 % of control.
In the case of `CCOC(=O)c1ccc(NN=NCCF)cc1`, the T/C is 114 % of control (dose: 75.0 mg/kg/injection, vehicle: distilled water + Tween-80 + alcohol); 160 % of control under setting [4]; 63 % of control under setting [5].
For the compound `CC(=O)C[n+]1ccc(C)cc1Sc1ccccc1C`, the T/C under setting [3] is 112 % of control and the T/C (dose: 100.0 mg/kg/injection, vehicle: saline with Tween-80) was 44 % of control.
With `CCCC1CCC(=C2C(=O)CCC2=O)O1` (stereo unspecified), the T/C runs as follows: (dose: 37.5 mg/kg/injection, vehicle: saline with Tween-80) 247 % of control; under setting [9], 68 % of control; under setting [10], 109 % of control; under setting [11], 50 % of control.
For `C=C(c1ccc(OC)c(OC)c1)c1nccc2cc(OC)c(OC)cc12`, the T/C is, setting by setting: (dose: 150.0 mg/kg/injection, vehicle: Klucel (hydroxypropylcellulose) (HPC)) 50 % of control; (dose: 300.0 mg/kg/injection, vehicle: Klucel (hydroxypropylcellulose) (HPC)) 62 % of control.
As for `CN(Cc1cnc2nc(N)nc(N)c2n1)c1ccc(C(=O)N[C@@H](CCC(=O)O)C(=O)O)cc1`, the T/C (dose: 27.0 mg/kg/injection, vehicle: sodium bicarbonate) is 100 % of control.
For the compound `c1nnc(NCNc2nncs2)s1`, the T/C was 61 % of control (dose: 100.0 mg/kg/injection, vehicle: suspension in saline); 36 % of control (dose: 144.0 mg/kg/injection, vehicle: Klucel (hydroxypropylcellulose) (HPC)); 23 % of control (dose: 200.0 mg/kg/injection, vehicle: suspension in saline); 23 % of control (dose: 240.0 mg/kg/injection, vehicle: Klucel (hydroxypropylcellulose) (HPC)); 20 % of control (dose: 400.0 mg/kg/injection, vehicle: suspension in saline).
As for `NC(=S=O)C(N)=S=O`, the T/C was 97 % of control (dose: 125.0 mg/kg/injection, vehicle: saline with Tween-80); 98 % of control (dose: 250.0 mg/kg/injection, vehicle: saline with Tween-80); 100 % of control (dose: 500.0 mg/kg/injection, vehicle: saline with Tween-80).
With `O=C(Nc1cc(Cl)ccc1C(=O)O)c1cccc(C[n+]2ccccc2)c1`, the T/C reads like this: under setting [10], 161 % of control; under setting [11], 86 % of control; (dose: 600.0 mg/kg/injection, vehicle: saline with Tween-80) 20 % of control.
